A short description of data set [1]: Inhibition of Bacillus stearothermophilus alpha-glucosidase. Further details: species or system Geobacillus stearothermophilus.
Data set [2] is described as follows: Retention time of the compound by HPLC-SPE-NMR analysis. The format is physicochemical.
Data set [3] concerns Geobacillus stearothermophilus. Nature of the data set: Inhibition of Bacillus stearothermophilus alpha-glucosidase at 10 ug/ml.
Data set [4] in a line: Cytotoxicity against human WS1 cells. Format: cell-based.

Active and inactive are the calls of the source. The calls are words filed in the database; no cut-off is given here.

For orientation: IC50 means the concentration needed to halve the response being measured. Read a high IC50 as weaker potency. `COc1cc(/C=C/C(=O)OC[C@H]2O[C@@H](Oc3cc(O)c4c(=O)cc(-c5ccc(O)cc5)oc4c3)[C@H](O)[C@@H](O)[C@@H]2O)ccc1O` showed a concentration for half-maximal inhibition (IC50) in data set [1] of 8.8 µM. Moreover, the Retention_time in data set [2] amounted to 41.8 min.
In the case of `O=c1cc(-c2ccc(O)cc2)oc2cc(O)cc(O)c12` [APIGENIN], the half-maximal inhibitory concentration (IC50) in data set [1] was determined as 34.6 µM. In data set [2], the Retention_time is reported as 50.2 min.
For the compound `O=C(/C=C/c1ccc(O)cc1)O[C@@H]1[C@@H](O)[C@H](O)[C@@H](CO)O[C@H]1c1c(O)cc2oc(-c3ccc(O)c(O)c3)cc(=O)c2c1O`, half-maximal inhibition in data set [1] (IC50) required 35.7 µM. The same compound had a Retention_time in data set [2] of 29.9 min.
`O=C(/C=C/c1ccc(O)cc1)O[C@@H]1[C@@H](O)[C@H](O)[C@@H](CO)O[C@H]1c1c(O)cc2oc(-c3ccc(O)cc3)cc(=O)c2c1O`: in data set [1], inhibition was half-maximal at 4.3 µM (IC50). Moreover, the Retention_time in data set [2] worked out at 36.5 min.
The compound `O=c1cc(-c2ccc(O)c(O)c2)oc2cc(O)c([C@@H]3O[C@H](CO)[C@@H](O)[C@H](O)[C@H]3O)c(O)c12` [ISOORIENTIN] returned an IC50 in data set [1] of 1530 µM. Besides, the Retention_time in data set [2] worked out at 14.9 min.
In the case of `O=c1cc(-c2ccc(O[C@@H]3O[C@H](CO)[C@@H](O)[C@H](O)[C@H]3O)c(O)c2)oc2cc(O)cc(O)c12`, the inhibition result in data set [3] is “inactive”.
Regarding `C[C@H]1O[C@H](O[C@H]2[C@H](O)[C@@H](O)[C@@H](O[C@H]3[C@H](O)[C@@H](O)C(O)O[C@@H]3CO)O[C@@H]2CO)[C@H](O)[C@@H](O)[C@@H]1N[C@H]1C=C(CO)[C@@H](O)[C@H](O)[C@H]1O` (stereo not given in full) [ACARBOSE], the half-maximal inhibitory concentration (IC50) in data set [1] was 0.033 µM.
`COc1cc(/C=C/C(=O)O[C@@H]2[C@@H](O)[C@H](O)[C@@H](CO)O[C@H]2c2c(O)cc3oc(-c4ccc(O)c(O)c4)cc(=O)c3c2O)cc(OC)c1O` displayed a Retention_time in data set [2] of 29.1 min.
In data set [1], `O=C(/C=C\c1ccc(O)cc1)OC[C@H]1O[C@@H](Oc2cc(O)c3c(=O)cc(-c4ccc(O)cc4)oc3c2)[C@H](O)[C@@H](O)[C@@H]1O` gave an IC50 of 10.1 µM. The same compound yielded a Retention_time in data set [2] of 44.9 min.
In turn, `O=C(/C=C/c1ccccc1)OC[C@H]1O[C@@H](Oc2cc(O)c3c(=O)cc(-c4ccc(O)c(O)c4)oc3c2)[C@H](O)[C@@H](O)[C@@H]1O` displayed a Retention_time in data set [2] of 51.4 min.
Take `O=C(/C=C/c1ccc(O)cc1)OC[C@H]1O[C@@H](Oc2cc(O)c3c(=O)cc(-c4ccc(O)cc4)oc3c2)[C@H](O)[C@@H](O)[C@@H]1O`: the figures for the IC50 in data set [1] and in data set [4] were 14.6 µM and 42 µM, respectively. The compound further had a Retention_time in data set [2] of 43.4 min.
For `O=C(/C=C\c1ccccc1)OC[C@H]1O[C@@H](Oc2cc(O)c3c(=O)cc(-c4ccc(O)cc4)oc3c2)[C@H](O)[C@@H](O)[C@@H]1O`, in data set [1], the IC50 was 11.3 µM. In data set [2], the Retention_time is given as 57.4 min.
The like results for `O=c1cc(-c2ccc(O)cc2)oc2cc(O)c([C@@H]3O[C@H](CO)[C@@H](O)[C@H](O)[C@H]3O)c(O)c12` [ISOVITEXIN] were, in that order, 61.2 µM and 19.5 min.
Turning to `O=c1cc(-c2ccc(O)c(O)c2)oc2cc(O[C@@H]3O[C@H](CO)[C@@H](O)[C@H](O)[C@H]3O)cc(O)c12` [GALUTEOLIN], the inhibition result in data set [3] was “inactive”. Also, the Retention_time in data set [2] turned out to be 20.7 min.
Turning to `O=c1cc(-c2ccc(O)cc2)oc2cc(O[C@@H]3O[C@H](CO)[C@@H](O)[C@H](O)[C@H]3O)cc(O)c12` [APIGETRIN], in data set [3], the inhibition result was “inactive”. This compound came in with a Retention_time in data set [2] of 25.7 min.
The compound `O=c1cc(-c2ccc(O)c(O)c2)oc2c([C@@H]3O[C@H](CO)[C@@H](O)[C@H](O)[C@H]3O)c(O)cc(O)c12` [ORIENTIN] had a Retention_time in data set [2] of 16.6 min.
For `COc1cc(-c2cc(=O)c3c(O)cc(O)cc3o2)ccc1O` [CHRYSOERIOL], the Retention_time in data set [2] was found to be 51.4 min.
In data set [1], `O=c1cc(-c2ccc(O)c(O)c2)oc2cc(O)cc(O)c12` [LUTEOLIN] returned a half-maximal inhibitory concentration (IC50) of 86.1 µM. In other words, the double-digit micromolar range.

Values taken from ChEMBL document CHEMBL3596150, “Acylated glucosylflavones as α-glucosidase inhibitors from Tinospora crispa leaf” (Bioorg Med Chem, 2015).
